Assay results published in ChEMBL document CHEMBL1201862, “PubChem BioAssay data set” (2004).
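All cell lines were grown in 96-well plates and treated with compound for 48 hours. GI50: concentration for 50% inhibition of growth.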 Activity calls are given as the source filed them. Rule as the data show it: active = GI50 up to about 1.1 µM and inactive = higher.

Columns and labels:
Test in all cases: NCI tumour cell line growth inhibition, 48 h
786-0 = system: 786-0
ACHN = system: ACHN
HCT-116 = system: HCT-116
HT-29 = system: HT-29
M14 = system: M14
MDA-MB-231 = system: MDA-MB-231
MDA-MB-435 = system: MDA-MB-435
NCI-H226 = system: NCI-H226
NCI-H460 = system: NCI-H460
NCI-H522 = system: NCI-H522
NCI/ADR-RES = system: NCI/ADR-RES
SF-295 = system: SF-295
SNB-75 = system: SNB-75
SW-620 = system: SW-620
TK-10 = system: TK-10
UACC-62 = system: UACC-62
OVCAR-3 = system: OVCAR-3
RXF 393 = system: RXF 393
SF-539 = system: SF-539
SR = system: SR

Structure (SMILES)	GI50 (786-0)	GI50 (ACHN)	GI50 (HCT-116)	GI50 (HT-29)	GI50 (M14)	GI50 (MDA-MB-231)	GI50 (MDA-MB-435)	GI50 (NCI-H226)	GI50 (NCI-H460)	GI50 (NCI-H522)	GI50 (NCI/ADR-RES)	GI50 (SF-295)	GI50 (SNB-75)	GI50 (SW-620)	GI50 (TK-10)	GI50 (UACC-62)	GI50 (OVCAR-3)	GI50 (RXF 393)	GI50 (SF-539)	GI50 (SR)
Clc1ccc(Nc2nnc(CCCCCCCCc3nnc(Nc4ccc(Cl)cc4)o3)o2)cc1	24.5 µM (inactive)	38.8 µM (inactive)	17.3 µM (inactive)	32 µM (inactive)	36 µM (inactive)	44.2 µM (inactive)	42.7 µM (inactive)	46 µM (inactive)	33.9 µM (inactive)	21.5 µM (inactive)	36 µM (inactive)	35.8 µM (inactive)	82.2 µM (inactive)	48.5 µM (inactive)	55.8 µM (inactive)	21.7 µM (inactive)				
COC(=O)[C@H]1COC(=O)N1	> 100 µM (inactive)	> 100 µM (inactive)	> 100 µM (inactive)	> 100 µM (inactive)	> 100 µM (inactive)	> 100 µM (inactive)	> 100 µM (inactive)	> 100 µM (inactive)	> 100 µM (inactive)	> 100 µM (inactive)	> 100 µM (inactive)	> 100 µM (inactive)	> 100 µM (inactive)	> 100 µM (inactive)	> 100 µM (inactive)	> 100 µM (inactive)	> 100 µM (inactive)	> 100 µM (inactive)	> 100 µM (inactive)	
Nc1nc(Cl)cc(Nc2cc(Cl)cc(Cl)c2)n1	17.4 µM (inactive)	24.9 µM (inactive)	17.5 µM (inactive)	17 µM (inactive)	19.3 µM (inactive)	20 µM (inactive)	20.1 µM (inactive)	18.7 µM (inactive)	18.2 µM (inactive)	10.9 µM (inactive)	21 µM (inactive)	21.1 µM (inactive)	21.7 µM (inactive)	22.4 µM (inactive)	20.4 µM (inactive)	18.4 µM (inactive)	22.8 µM (inactive)	21.1 µM (inactive)	17 µM (inactive)	
C[C@]12CCC(=O)C=C1CC[C@@H]1C2CC[C@]2(C)Nc3c(ncn3-c3ccc(F)cc3)CC12 (some centres undefined)	31 µM (inactive)	20.8 µM (inactive)	15 µM (inactive)	18.9 µM (inactive)	23.8 µM (inactive)	42.5 µM (inactive)	12.6 µM (inactive)	49.2 µM (inactive)	21.7 µM (inactive)	15 µM (inactive)		15.3 µM (inactive)	17.5 µM (inactive)	31.6 µM (inactive)	27.7 µM (inactive)	16.1 µM (inactive)	29.2 µM (inactive)	5.56 µM (inactive)	11.7 µM (inactive)	3.34 µM (inactive)
O=C1Oc2ccccc2C(=O)/C1=C/NC(=S)NCc1ccccc1	64.1 µM (inactive)	25.1 µM (inactive)	53.8 µM (inactive)	> 100 µM (inactive)	75 µM (inactive)	71 µM (inactive)	54.3 µM (inactive)	> 100 µM (inactive)	70 µM (inactive)		66.1 µM (inactive)	55.6 µM (inactive)	16.9 µM (inactive)	99.1 µM (inactive)	6.34 µM (inactive)		> 100 µM (inactive)		43.9 µM (inactive)	
CC(C)=CCC/C(C)=C/Cc1cc(/C=C/c2cc(O)c(CC=C(C)C)c(O)c2)cc(O)c1O [MAPPAIN]	4.6 µM (inactive)	1.48 µM (inactive)	3.37 µM (inactive)	4.18 µM (inactive)	4.26 µM (inactive)	11.2 µM (inactive)	2.55 µM (inactive)	8.59 µM (inactive)	2.68 µM (inactive)	0.141 µM (active)	3.15 µM (inactive)	4.65 µM (inactive)	2.58 µM (inactive)	3.54 µM (inactive)	3.32 µM (inactive)	2.7 µM (inactive)	1.99 µM (inactive)	2.46 µM (inactive)	3.79 µM (inactive)	
CC(Cl)CN1c2ccccc2Sc2ccc(Cl)cc21 (centres undefined)	> 10 µM (inactive)	> 10 µM (inactive)	> 10 µM (inactive)	> 10 µM (inactive)	> 10 µM (inactive)	> 10 µM (inactive)	> 10 µM (inactive)	> 10 µM (inactive)	> 10 µM (inactive)	> 10 µM (inactive)	> 10 µM (inactive)	> 10 µM (inactive)	> 10 µM (inactive)	> 10 µM (inactive)	> 10 µM (inactive)	> 10 µM (inactive)	> 10 µM (inactive)	> 10 µM (inactive)	> 10 µM (inactive)	
O=c1c(C(c2cnc3ccccc3c2)c2c(O)oc3ccccc3c2=O)c(O)oc2ccccc12	44.5 µM (inactive)		30.3 µM (inactive)	33.4 µM (inactive)		92.7 µM (inactive)	36.3 µM (inactive)	23.1 µM (inactive)	27.6 µM (inactive)	36.1 µM (inactive)	> 100 µM (inactive)		13.5 µM (inactive)	29.6 µM (inactive)	49.4 µM (inactive)	17.6 µM (inactive)	91.8 µM (inactive)			
CC1(C)OC(=O)C(Cc2ccccc2)(Cc2ccccc2)C(=O)O1	> 100 µM (inactive)	> 100 µM (inactive)	> 100 µM (inactive)	> 100 µM (inactive)	> 100 µM (inactive)	> 100 µM (inactive)		> 100 µM (inactive)	> 100 µM (inactive)	> 100 µM (inactive)	> 100 µM (inactive)	> 100 µM (inactive)	> 100 µM (inactive)	> 100 µM (inactive)	> 100 µM (inactive)	> 100 µM (inactive)		3.58 µM (inactive)	> 100 µM (inactive)	> 100 µM (inactive)
OC1OC(c2ccco2)C(F)(F)C(F)(F)C1(F)F (centres undefined)	> 100 µM (inactive)	> 100 µM (inactive)	> 100 µM (inactive)	23.3 µM (inactive)	> 100 µM (inactive)	65.6 µM (inactive)	43.6 µM (inactive)	> 100 µM (inactive)	> 100 µM (inactive)		61.5 µM (inactive)	68.7 µM (inactive)		> 100 µM (inactive)	> 100 µM (inactive)	> 100 µM (inactive)	> 100 µM (inactive)	> 100 µM (inactive)	> 100 µM (inactive)	
COc1cc2c[n+]3c4c(c2c(OC)c1OC)CCCC4CC3 (centres undefined)	> 100 µM (inactive)	> 100 µM (inactive)	> 100 µM (inactive)	> 100 µM (inactive)	> 100 µM (inactive)	> 100 µM (inactive)	> 100 µM (inactive)		> 100 µM (inactive)	30.8 µM (inactive)	> 100 µM (inactive)	> 100 µM (inactive)		> 100 µM (inactive)		> 100 µM (inactive)	66.5 µM (inactive)	> 100 µM (inactive)		
CC12CCC(C/C1=N\NC(N)=O)C2(C)C (centres undefined)	> 100 µM (inactive)	> 100 µM (inactive)	> 100 µM (inactive)	> 100 µM (inactive)	> 100 µM (inactive)		> 100 µM (inactive)	> 100 µM (inactive)	> 100 µM (inactive)	> 100 µM (inactive)	> 100 µM (inactive)	> 100 µM (inactive)	> 100 µM (inactive)	> 100 µM (inactive)	> 100 µM (inactive)	> 100 µM (inactive)	> 100 µM (inactive)			> 100 µM (inactive)
CC1(C)CC(=O)C(Cc2ccccc2)(Cc2ccccc2)C(=O)C1	> 100 µM (inactive)	> 100 µM (inactive)	> 100 µM (inactive)	> 100 µM (inactive)	> 100 µM (inactive)	> 100 µM (inactive)		> 100 µM (inactive)	> 100 µM (inactive)	> 100 µM (inactive)	> 100 µM (inactive)	> 100 µM (inactive)	39.8 µM (inactive)	> 100 µM (inactive)	> 100 µM (inactive)	> 100 µM (inactive)		33.8 µM (inactive)	> 100 µM (inactive)	> 100 µM (inactive)
CCSC1(SCC)CC(Cc2ccc(OC)cc2)N(/C=N/C(C)(C)C)C1 (centres undefined)	32.1 µM (inactive)	32.5 µM (inactive)	20.9 µM (inactive)	10.7 µM (inactive)	14.7 µM (inactive)			27.6 µM (inactive)	8.51 µM (inactive)	15 µM (inactive)		15.1 µM (inactive)	26.2 µM (inactive)	15.1 µM (inactive)	17.3 µM (inactive)	19.1 µM (inactive)	27.8 µM (inactive)	11.5 µM (inactive)	54.5 µM (inactive)	10.6 µM (inactive)
N/C(=N\O)N/N=C/c1cc(I)cc(I)c1O	22.2 µM (inactive)	24.1 µM (inactive)	23.7 µM (inactive)	46.7 µM (inactive)	19 µM (inactive)	54.8 µM (inactive)	69.5 µM (inactive)	0.627 µM (active)	35.2 µM (inactive)	80.5 µM (inactive)	2.8 µM (inactive)	50.4 µM (inactive)		> 100 µM (inactive)	57.7 µM (inactive)	31.9 µM (inactive)	2.2 µM (inactive)	24.5 µM (inactive)	29.7 µM (inactive)	
Cc1c2c3ccccc3nc-2n(C)c2ccccc12	2.02 µM (inactive)	0.611 µM (active)	0.495 µM (active)	1.34 µM (inactive)	3.48 µM (inactive)		2.9 µM (inactive)	2.77 µM (inactive)	0.396 µM (active)		2.01 µM (inactive)	3.7 µM (inactive)	2.48 µM (inactive)	1.11 µM (active)	1.94 µM (inactive)	1.7 µM (inactive)	1.77 µM (inactive)	1.99 µM (inactive)	2.99 µM (inactive)	1.44 µM (inactive)
